From US20250280826A1, “PLANT GROWTH PROMOTER” (KAO CORPORATION, priority 2022, published 2025)

What was measured:
soybean (Glycine max) = assay: Test Example 1: soybean yield (dry grain mass) in field after one foliar spray; assay type: in vivo
Procedure: An ascorbic acid aqueous solution prepared by dissolving ascorbic acid in water and an ascorbic acid aqueous solution prepared by dissolving ascorbic acid in deionized water were prepared, and the influence of the ascorbic acid dissolved in water on the application effect for soybean (Glycine max) was examined.
The influence of one foliar spray of 500 mass ppm ascorbic acid on the soybean yield was evaluated. The evaluated test plots 1 to 3 are as shown below. • 1 plot: control (no application) • 2 plot: foliar spray of 500 mass ppm ascorbic acid (dissolved in tap water) • 3 plot: foliar spray of 500 mass ppm ascorbic acid (dissolved in deionized water)
The cultivation of soybean was carried out in a field in Tochigi Prefecture, and the soybean cultivar used was “Sato no Hohoemi.” Of the field, a ridge with a width of 2 m excluding the perimeter was used as one plot, and foliar spray treatment was carried out. […]
The ascorbic acid used was “Food Additive Grade Vitamin C (L-ascorbic acid) Fine Mesh TypeSSS” manufactured by Fuso Chemical Co. Ltd. An aqueous solution of 500 mass ppm ascorbic acid was dissolved in tap water or deionized water for production. […] The dry grain mass was measured as yield data.
After calculating the average grain weight of each plant in one plot, the mean and the standard deviation of three plots were calculated (FIG. 1).

soybean [1] = assay: Example 2: soybean nodule activity (ureide in exudate) one week after foliar spray; assay type: in vivo
Procedure: Medium-term fertilizer effect type culture soil (Takii hydrous cell medium-term fertilizer effect type, Takii & Co., Ltd.) and vermiculite grains (Akagi-Engei Co., Ltd.) were mixed at a volume ratio of 1:1, and the soil was placed in a polypot (diameter: 10.5 cm, height: 9 cm). The soybean seeds used were “Enrei” (purchased from Nikko Seed Co. Ltd.). After tap water was supplied in an amount of 250 mL per pot, 2 seeds per pot were each sown at a depth of from about 1 to 2 cm from the soil surface. The number of repeats in each test plot was 6 (n=6).
1.5% agar (Wako Pure Chemical Industries, Ltd.) was added to Yeast-Mannitol (YM) medium (0.5 g of K2HPO4, 0.2 g of MgSO4-7H2O, 0.1 g of NaCl, 0.4 g of yeast extract, 10 g of mannitol, and 1 L of distilled water (pH: 6.8)) to prepare a solid medium, and a soybean Rhizobium (Bradyrhizobium japonicum) NBRC14783T strain was grown on the solid medium. A platinum loop of the grown Rhizobium was taken and inoculated in 50 mL of YM liquid medium in a Sakaguchi flask with a volume of 500 mL, and shake-cultured at 30° C. for about 36 hours. […]
Exudate components contained in the cotton balls were eluted with ultrapure water and filtered using Micro Biospin chromatography column (Bio-Rad Laboratories, Inc.). […] The 1 000-fold diluted filtrate was quantified. […]

legume crops = details: total of three foliar sprays, ascorbic acid solution dissolved in distilled water, vegetative or reproductive growth stage; cited from earlier work
soybean [2] = assay: Example 5: soybean nodule activity after application of high concentration of ascorbic acid; assay type: in vivo; details: ascorbic acid dissolved in deionized water in comparison to tap water, regardless of amount of water
Excerpt: The items of the preparation of soil and sowing, the inoculation of Rhizobium, the cultivation conditions, the exudate collection method for measuring the amount of ureide nitrogen as an indicator of nodule activity, the experimental operation before quantification of exudate, the equipment and measurement method used for quantification of the amount of ureide nitrogen, and the standard products used and quantification were the same as those in Example 3, and the cultivation of soybean was carried out for 21 days.
Foliar spray treatment was carried out on day 14 after sowing. In addition to the reagents mentioned in Examples 2, 3, and 4, polyethylene glycol monolaurate and a glycerol fatty acid ester were used as nonionic surfactants. The reagents were dissolved in tap water or deionized water to prepare spraying solutions. Foliar spray was carried out only once. Assuming aerial spraying, 8 types of test plots containing a high concentration of ascorbic acid were examined (Table 6). In the test plots 2 and 3, 6.7 mL of each per plant was sprayed using a mister, and in the test plots 4 to 8, 0.125 mL of each per plant was sprayed.
The mean and the standard deviation were calculated from the data of four repeats, excluding the highest and the lowest values from the six repeats in each test plot.

O=C1O[C@H]([C@@H](O)CO)C(O)=C1O [ascorbic acid, (R)-3,4-dihydroxy-5-((S)-1,2-dihydroxyethyl)furan-2(5H)-one]
effects of ascorbic acid on seed weight (soybean (Glycine max); 500 mass ppm dissolved in tap water): effects of ascorbic acid disappear | effects of tap water and deionized water on the seed weight (soybean (Glycine max); 500 mass ppm, 20 mL per plant, day 60 after sowing, tap water vs deionized water): different effects | nodule activity (soybean [1]; ascorbic acid 1,500 ppm dissolved in deionized water, soybean early growth stage): increased | application effect of ascorbic acid (nodule activity) (soybean [1]; ascorbic acid 1,500 ppm dissolved in tap water): tended to decrease | increase the yield (legume crops): up to 30% | nodule activity (allantoic acid in exudate) (soybean [2]): increased
